Test results taken from patent publication US10913781B2, “Pepducin design and use” (Tufts Medical Center, Inc., priority 2011, dated 2021).
pIC50: −log10 of the molar value. Peptide text beside a SMILES is read from it. * marks the point of attachment. Palmitoyl = CCCCCCCCCCCCCCCC(=O)*

Experiments:
[1] = Pharmacokinetics of PAR1 pepducins in CF-1 mice, plasma LC/MS/MS; format: in vivo, mouse; set-up: Peak plasma level: unit not given here; settings: 10 mg/kg s.c.
Method: FIG. 14 illustrates pharmacokinetics of PAR1 pepducins. (A): CF-1 mice were injected subcutaneously with P1pal-7 (3 mg/kg, open circles), P1pal-7 (10 mg/kg, closed circles), P1pal-10S (10 mg/kg, gray circles), or P1pal-i1-11 (10 mg/kg, open squares) in 20% dimethyl sulfoxide and blood was collected at indicated time points (n=3). Pepducin levels in plasma were quantified with LC/MS/MS. (B): Daily (D1 to D6) plasma levels of P1pal-7 after subcutaneous injection of 10 mg/kg P1pal-7 were measured at 1 hour (open circles) and 24 hours (open squares).
Pharmacokinetics of plasma levels of P1pal-7, P1pal-10S, and P1pal-i1-11 at 30 minutes, and at 1, 2, 4, 6, 8, and 16 hours was measured by LC/MS/MS to determine steady-state pepducin drug levels and the rate of elimination from mice. Subcutaneous injections of P1pal-7 (3 mg/kg or 10 mg/kg) into wild-type CF-1 mice (25 to 30 g) was followed by blood collection at various time points from the vena cava. […] Residual P1pal-7 levels were 10 nmol/L at the 16-hour time point. After the 4-hour plateau, the elimination rate was linear from 4 to 16 hours. The peak plasma level of 3 mg/kg P1pal-7 reached 0.6 μmol/L at 2 hours and elimination was linear between 2 hours and 16 hours. P1pal-10S (10 mg/kg) gave similar peak plasma level of 1.0 μmol/L as P1pal-7 (10 mg/kg) at 1 hour.
Lastly, the peak plasma level of P1pal-7 (10 mg/kg) was measured before and 1 hour after once-daily subcutaneous injection over 6 days to determine whether the peak plasma levels were consistent on daily administration.

CXCR1/CXCR2 = assay: Human neutrophil chemotaxis to IL-8; format: cell-based; settings: 100 nM IL-8
Method: (§1) (A) Human neutrophils (n=4 normal volunteers) were analyzed for surface expression of human PAR1, PAR2, and PAR4 by flow cytometry with PAR-specific antibodies. […] Chemotaxis index is the ratio of directed versus random migration over 30 min through a 5-μm pore filter.
P2pal-18S had no effect on PAR1-dependent platelet aggregation (FIG. 5A). Neither P2pal-18S nor P2pal-14GQ caused membrane disruption or apoptosis as assessed by propidium iodide uptake in SW620 cells with up to 30 μM concentrations of pepducin (FIG. 5B).

PAR2 [2] = molecular target: PAR2 (Mus musculus, UniProt P55086); assay: SLIGRL-induced mouse paw edema; format: in vivo; set-up: from tissue; host or cells: living C57BL/6 mice, hindpaw; settings: WT C57BL/6 mice; 10 mg/kg s.c.
Sequence of PAR2 (Mus musculus, UniProt P55086) (P55086 26-399): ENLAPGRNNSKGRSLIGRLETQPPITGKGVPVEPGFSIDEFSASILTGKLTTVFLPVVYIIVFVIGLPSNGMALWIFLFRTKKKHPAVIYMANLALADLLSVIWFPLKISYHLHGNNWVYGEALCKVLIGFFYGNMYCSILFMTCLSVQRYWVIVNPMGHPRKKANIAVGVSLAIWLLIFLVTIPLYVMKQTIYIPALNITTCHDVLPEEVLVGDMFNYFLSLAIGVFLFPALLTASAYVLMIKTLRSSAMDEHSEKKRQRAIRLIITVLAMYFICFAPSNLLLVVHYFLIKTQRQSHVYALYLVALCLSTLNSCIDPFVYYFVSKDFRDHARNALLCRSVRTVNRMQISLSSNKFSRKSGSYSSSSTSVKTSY
Method: (A) λ-carrageenan/kaolin or (B) the PAR2 specific agonist SLIGRL was administered by intraplantar injection to the left hindpaw of C57BL/6 wild-type or PAR2^−/− mice that were treated with subcutaneous (s.c.) injection of 10 mg/kg of P2pal-18S or vehicle. Paw area was measured and reported as fold-increase relative to baseline paw area. (C) Histology of representative H&E-stained footpads 7 h after λ-carrageenan/kaolin injection and quantification of the infiltrating inflammatory cells at 40× magnification. […]
To evaluate the in vivo efficacy and specificity of P2pal-18S, the ability of the pepducins of the present invention was tested to protect against inflammatory hindlimb paw edema in wild-type (WT) and PAR2-deficient mouse strains (Damiano B P, et al. (1999) J Pharmacol Exp Ther 288: 671-78.) Acute inflammatory edema was induced by an intraplantar injection of λ-carrageenan and kaolin, irritants which cause a massive leukocytosis and hyperemic response, which leads to localized swelling. PAR2-dependent activity of an embodiment of the present invention, polypeptide P2pal-18S, was directly assessed by quantifying its inhibitory effects against the PAR2-specific agonist SLIGRL when injected into the hind footpad of WT C57BL/6 mice. […]

PAR2 [3] = molecular target: PAR2 (Homo sapiens, UniProt P55085); assay: Human neutrophil chemotaxis to PAR2 agonists (trypsin, SLIGRL, tryptase); format: cell-based; set-up: SW620 colon adenocarcinoma cells that endogenously express PAR2; endogenous in cells; host or cells: SW620 (in A7 the SW620 cells were additionally stably transfected with PAR1)
Sequence of PAR2 (Homo sapiens, UniProt P55085) (P55085 26-397): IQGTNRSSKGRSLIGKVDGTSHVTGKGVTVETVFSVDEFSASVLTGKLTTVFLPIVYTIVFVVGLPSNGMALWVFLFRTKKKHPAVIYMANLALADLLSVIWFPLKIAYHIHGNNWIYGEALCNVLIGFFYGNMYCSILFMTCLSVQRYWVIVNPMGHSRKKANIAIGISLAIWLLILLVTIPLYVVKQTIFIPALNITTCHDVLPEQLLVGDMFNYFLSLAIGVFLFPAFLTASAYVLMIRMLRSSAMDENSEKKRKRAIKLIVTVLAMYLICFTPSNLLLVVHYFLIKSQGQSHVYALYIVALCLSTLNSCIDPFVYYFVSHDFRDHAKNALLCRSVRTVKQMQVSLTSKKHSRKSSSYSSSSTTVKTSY
Method: as §1
The ability of some pepducin embodiments of the invention to antagonize PAR2-dependent activity of human neutrophils was tested. Neutrophils were isolated from the peripheral blood of healthy human volunteers and found to express high levels of surface PAR2 and PAR4 and lower apparent levels of PAR1 by flow cytometry (FIG. 3A). […] As human PAR2 shares 85% identity with mouse PAR2 and the mouse i3 loop retains all of the critical pharmacophores identified in the human PAR2 i3 loop, cross-species inhibition with mouse cells was tested.

| Compound | Clearance / plasma half-life in words [1] | Peak plasma level ([1]; between 0.5 and 8 hours) | Antagonist activity, neutrophil chemotaxis, CXCR1/2 IL-8 receptors (CXCR1/CXCR2) | Decrease in SLIGRL-induced edema (PAR2 [2]) | Inhibition of chemotactic migration to tryptase (PAR2 [3]; 0.3 μM pepducin, 100 nM tryptase) | pIC50 (PAR2 [3]; gradients of trypsin (30 nM) and SLIGRL (10 μM), 30 min, read-out: IC50, inhibition of neutrophil chemotaxis) |
| --- | --- | --- | --- | --- | --- | --- |
| CCCCCCCCCCCCCCCC(=O)N[C@H](C(=O)N[C@@H](CC(C)C)C(=O)N[C@@H](CCCCN)C(=O)N[C@@H](CCSC)C(=O)N[C@@H](CCCCN)C(=O)N[C@H](C(=O)N[C@@H](CCCCN)C(=O)N[C@@H](CCCCN)C(=O)N1CCC[C@H]1C(=O)N[C@@H](C)C(=O)N[C@H](C(N)=O)C(C)C)C(C)C)[C@@H](C)CC [P1pal-i1-11] (Palmitoyl-ILKMKVKKPAV-NH2) | sustained plasma half-life | 5.0 |  |  |  |  |
| CCCCCCCCCCCCCCCC(=O)N[C@@H](CCCNC(=N)N)C(=O)N[C@@H](CO)C(=O)N[C@@H](CO)C(=O)N[C@@H](C)C(=O)N[C@@H](CCSC)C(=O)N[C@@H](CC(=O)O)C(=O)N[C@@H](CCC(=O)O)C(=O)N[C@@H](CC(N)=O)C(=O)N[C@@H](CO)C(=O)N[C@@H](CCC(=O)O)C(=O)N[C@@H](CCCCN)C(=O)N[C@@H](CCCCN)C(=O)N[C@@H](CCCNC(=N)N)C(=O)N[C@@H](CCCCN)C(=O)N[C@@H](CO)C(=O)N[C@@H](C)C(=O)N[C@H](C(=O)N[C@@H](CCCCN)C(N)=O)[C@@H](C)CC [P2pal-18S] |  |  | no antagonist activity | 85% | completely blocked | 6.70 to 6.85 |
